pEC50, pIC50: −log10 of the molar value. Like-named read-outs stand apart in the source and are kept apart here.
Tests used:
Acute toxicity, oral = assay type: in vivo; settings: mouse, in vivo; mice, single oral dose, 14 days observation; read-out: Acute Toxicity per os
Protocol: (§1) The acute toxicity of the test compounds was determined on groups of 10 mice each after oral administration of a single dose of 1,000 mg/kg (observation time: 14 days).

mice = test: Acute toxicity, oral; assay type: in vivo; settings: single oral dose of 1,000 mg/kg, 14 days observation
Protocol: as §1

[1] = system: phosphodiesterase (PDE), supernatant of human blood platelets; test: PDE inhibition (3H-cAMP hydrolysis); assay type: biochemical; settings: human blood platelet PDE, 1 μmol/liter 3H-cAMP, pH 7.4, 15 minutes, 37° C.
Protocol: cAMP is hydrolysed to AMP by phosphodiesterase (PDE) from various sources, including blood platelets. This hydrolysis is inhibited by PDE inhibitors according to the concentration.
The phosphodiesterase used was the 10,000×g supernatant of human blood platelets which had been frozen with water and thawed out again.
An amount of 0.3 ml of a mixture which contained 0.1 mole/liter of trihydroxy-aminomethane (pH 7.4), 3 mmole/liter of magnesium chloride, 1 mmole/liter of AMP, 1 μmol/liter of ^3 H-cAMP (specific activity about 10 MBq/μmol), PDE as well as the substance to be tested and water for the control were incubated for 15 minutes at 37° C.
The incubation was stopped by the addition of 0.5 ml of zinc sulfate (0.266 mole/liter) and 0.5 ml of barium hydroxide (0.266 mole/liter), the precipitate was centrifuged and the activity remaining in the supernatant of the unreacted ^3 H-cAMP was determined. From a comparison of the substance preparations and the control preparations, the concentration for a 50% inhibiting activity (IC50) of the respective substance was calculated.

[2] = system: thrombocyte aggregation in platelet-rich plasma of healthy human donors; test: Thrombocyte aggregation inhibiting activity by the method of Born and Cross (platelet-rich plasma); assay type: cell-based; settings: optical density
Protocol: 1. Determination of the thrombocyte aggregation inhibiting activity by the method of Born and Cross [J. Physiol. 170, 397 (1964)]:
The thrombocyte aggregation was measured in the platelet-rich plasma of healthy human donors. The decrease in optical density was measured and recorded photometrically after the addition of adenosine diphosphate or collagen. From the angle of inclination of the density curve, the rate of aggregation was estimated (Vmax). The optical density was taken as the point on the curve where the most light was transmitted (O.D.).
The EC50 values in the tables indicate the optical density.
Small doses of collagen were chosen, but sufficient to give irreversible aggregation. To provoke maximum aggregation, about 0.01 ml of the collagen solution was added to 1 ml of platelet-rich plasma. (Commercial collagen of Hormonchemie, Munich). The adenosine diphosphate (ADP) doses were chosen to give only the first phase of the BORN curve. The necessary amount of ADP was about 1×10^-6 mol/l. Commercial ADP of Boehringer Mannheim was used.
The substance dose which produced a 50% inhibition of the thrombozytes aggregation (EC50) was determined graphically.

conscious mice = test: Prolongation of the bleeding time (mouse tail); assay type: in vivo; settings: po, 10 mg/kg orally, after 1 hour, compared to control group, read-out: Prolongation of the bleeding time in % after one hour
Protocol: The function of the thrombocytes can be determined by measuring the bleeding time. The normal bleeding time in human beings is in the range of 1 to 3 minutes and needs intact thrombozytes in a sufficient number. If the number of thrombocytes is normal and the bleeding time is prolonged, this signifies a disturbed function of the thrombocytes. This is found in some congenital defects of thrombocyte function (V. Willebrand's disease, for example). If, on the other hand it is the aim to prevent spontaneous aggregation of the thrombocytes and occlusion in the arterial system by antithrombotic drugs, the bleeding time should be prolonged as a consequence. Therefore, using antithrombotic substances, a prolongation of the bleeding time is expected. If the plasma coagulation system is not influenced by such a medicine, coagulation tests will give a normal result.
To measure the bleeding time, 10 mg/kg of the test compound is administered orally to conscious mice. After 1 hour, 0.5 mm of the tip of the mousetail is cut off and droplets of blood are gently removed with filter paper every 30 second. The number of drops of blood give a measure for the bleeding time (5 animals/experiment).
The numbers in the following table represent the prolongation in % compared to the control group.

[3] = system: Platelet Thromboses in the Rat; test: Influence on platelet thromboses in the rat (electrical irritation of a vein); assay type: in vivo; settings: male rats, five animals per dose, 20 minutes observation, vs. untreated group; dose not given
Protocol: Literature: H. Poliwoda, J. Lilli, G. Hagemann, D. Schyma: Z. ges. exp. Med., 145, 252 (1968)
Male rats (body weight between 70 and 90 grams) received an intraperitoneal Nembutal anesthesia (dose: 50 to 60 mg/kg). To avoid hypothermia, they were positioned on a heated test table (about 37° C.). The respiratory passage was held free by insertion of a tracheal cannula.
After a transverse abdominal incision was made, an intestinal loop was exposed and fixed, and a vein, with a diameter of about 300 μ was prepared. A monopolar platinum electrode embedded in glass and having a tip diameter of about 100μ was applied to the vein as an irritating cathode. The indifferent electrode was applied to the same vessel opposite the cathode. The irritation was provoked by 150 volts of direct current for a period of 100 milliseconds. After the irritation, the area of observation was continuously rinsed with warm (37° C.) physiological salt solution.
The formation and growth of the thrombosis was followed under a binocular microscope over a time period of 20 minutes. During the entire period of observation, the percentage of the vessel volume closed by the thrombosis was estimated at different time intervals.
Five animals per dose were used, and the results were averaged.
In the test compound experiments, the average size of the thrombosis in the treated animal group was compared with that of an untreated animal group. The result was given as "percentage reduction of the average thrombosis size." The following table contains the values obtained.

[4] = ADP-induced (about 1×10^-6 mol/l), read-out: EC50 (50% inhibition of thrombocyte aggregation), ADP
[5] = collagen-induced, read-out: EC50 (50% inhibition of thrombocyte aggregation), Collagen

O=C1CCc2cc(OCCCCSc3ccccc3)ccc2N1 [A, 6-(4-Phenylmercapto-butoxy)-3,4-dihydro-carbostyril]
LD50 at 336 h (Acute toxicity, oral): > 1000 mg/kg | animals died (acute toxicity per os) (mice): 0 out of 10 animals | pIC50 [1]: 6.11 | pEC50 [2, 4]: < 4.00 | pEC50 [2, 5]: 4.30 | change in vivo at 10 mg/kg (conscious mice): 145%

Nc1c(Br)cc([S+]([O-])CCCCOc2ccc3c(c2)CCC(=O)N3)cc1Br (centres unmarked) [AA, 6-[4-(3,5-Dibromo-4-aminophenylsulfinyl)-butoxy]-3,4-dihydrocarbostyril]
pIC50 [1]: 6.60

Nc1c(Br)cc([S+]([O-])CCCCOc2ccc3[nH]c(=O)ccc3c2)cc1Br (centres unmarked) [BB, 6-[4-(3,5-Dibromo-4-aminophenylsulfinyl)-butoxy]-carbostyril]
pIC50 [1]: 7.30

O=C1CCc2cc(OCCCC[S+]([O-])c3ccc(C4CCCCC4)cc3)ccc2N1 (centres unmarked) [CC, 6-[4-(4-Cyclohexylphenylsulfinyl)-butoxy]-3,4-dihydro-carbostyril]
pIC50 [1]: 5.80

O=C1CCc2cc(OCCCCSc3ccccn3)ccc2N1 [D, 6-[4-(2-Pyridyl-mercapto)-butoxy]-3,4-dihydro-carbostyril]
LD50 at 336 h (Acute toxicity, oral): > 1000 mg/kg | animals died (acute toxicity per os) (mice): 0 out of 10 animals | pIC50 [1]: 5.80 | pEC50 [2, 4]: < 4.00 | pEC50 [2, 5]: 4.35 | change in vivo at 10 mg/kg (conscious mice): 76%

O=c1ccc2cc(OCCCC[S+]([O-])c3ccc(C4CCCCC4)cc3)ccc2[nH]1 (centres unmarked) [DD, 6-[4-(4-Cyclohexylphenylsulfinyl)-butoxy]-carbostyril]
pIC50 [1]: 7.40 | Percentage Reduction of the Average Thrombosis Size [3]: 11%

CC(C)(C)c1ccc([S+]([O-])CCCCOc2ccc3[nH]c(=O)ccc3c2)cc1 (centres unmarked) [EE, 6-[4-(4-tert.-Butylphenylsulfinyl)-butoxy]-carbostyril]
pIC50 [1]: 7.52

O=C1CCc2cc(OCC[S+]([O-])c3ccccc3)ccc2N1 (centres unmarked) [G, 6-(2-Phenylsulfinyl-ethoxy)-3,4-dihydro-carbostyril]
LD50 at 336 h (Acute toxicity, oral): > 1000 mg/kg | animals died (acute toxicity per os) (mice): 0 out of 10 animals | pIC50 [1]: 5.47 | pEC50 [2, 4]: 4.77 | pEC50 [2, 5]: 5.46 | change in vivo at 10 mg/kg (conscious mice): 5%

O=C1CCc2cc(OCCCC[S+]([O-])Cc3ccccc3)ccc2N1 (centres unmarked) [H, 6-(4-Benzylsulfinyl-butoxy)-3,4-dihydro-carbostyril]
LD50 at 336 h (Acute toxicity, oral): > 1000 mg/kg | animals died (acute toxicity per os) (mice): 0 out of 10 animals | pIC50 [1]: 5.80 | pEC50 [2, 4]: 4.85 | pEC50 [2, 5]: 5.60 | change in vivo at 10 mg/kg (conscious mice): 29%

CC(C)(C)[S+]([O-])CCCCOc1ccc2c(c1)CCC(=O)N2 (centres unmarked) [HH, 6-(4-tert.Butylsulfinyl-butoxy)-3,4-dihydrocarbostyril]
Percentage Reduction of the Average Thrombosis Size [3]: 19%

O=C1CCc2cccc(OCCCCSc3ccccc3)c2N1 [II, 8-(4-Phenylmercapto-butoxy)-3,4-dihydro-carbostyril]
Percentage Reduction of the Average Thrombosis Size [3]: 4%

O=c1ccc2cc(OCCCC[S+]([O-])c3ccccn3)ccc2[nH]1 (centres unmarked) [JJ, 6-[4-(2-Pyridylsulfinyl)-butoxy]-carbostyril]
Percentage Reduction of the Average Thrombosis Size [3]: 29%

O=C1CCc2cc(OCCCC[S+]([O-])C3CCCCC3)ccc2N1 (centres unmarked) [K, 6-(4-Cyclohexylsulfinyl-butoxy)-3,4-dihydro-carbostyril]
LD50 at 336 h (Acute toxicity, oral): > 1000 mg/kg | animals died (acute toxicity per os) (mice): 0 out of 10 animals | pIC50 [1]: 5.60 | pEC50 [2, 4]: 4.92 | pEC50 [2, 5]: 5.35 | change in vivo at 10 mg/kg (conscious mice): 12%

Cc1cc(=O)[nH]c2ccc(OCCCC[S+]([O-])c3ccccn3)cc12 (centres unmarked) [KK, 4-Methyl-6-[4-(2-pyridylsulfinyl)-butoxy]-carbostyril]
Percentage Reduction of the Average Thrombosis Size [3]: 17%

O=c1ccc2cc(OCCCC[S+]([O-])c3ccccc3)ccc2[nH]1 (centres unmarked) [N, 6-(4-Phenylsulfinyl-butoxy)-carbostyril]
pIC50 [1]: 6.33 | Percentage Reduction of the Average Thrombosis Size [3]: 24% | pEC50 [2, 4]: 5.52 | pEC50 [2, 5]: 6.22

CC(C)(C)c1cc([S+]([O-])CCCCOc2ccc3[nH]c(=O)ccc3c2)cc(C(C)(C)C)c1O (centres unmarked) [O, 6-[4-(4-Hydroxy-3,5-di-tert. butylphenyl-sulfinyl)-butoxy]-carbostyril]
LD50 at 336 h (Acute toxicity, oral): > 1000 mg/kg | animals died (acute toxicity per os) (mice): 0 out of 10 animals | pIC50 [1]: 7.10 | Percentage Reduction of the Average Thrombosis Size [3]: 17% | pEC50 [2, 4]: 6.30 | pEC50 [2, 5]: 6.70 | change in vivo at 10 mg/kg (conscious mice): 73%

O=C1CCc2cc(OCCCCS(=O)(=O)c3ccc(Cl)c(Cl)c3)ccc2N1 [R, 6-[4-(3,4-Dichlorophenyl-sulfonyl)-butoxy]-3,4-dihydro-carbostyril]
LD50 at 336 h (Acute toxicity, oral): > 1000 mg/kg | animals died (acute toxicity per os) (mice): 0 out of 10 animals | pIC50 [1]: 5.74 | pEC50 [2, 4]: 4.60 | pEC50 [2, 5]: 5.82 | change in vivo at 10 mg/kg (conscious mice): 30%

O=c1ccc2cc(OCCCC[S+]([O-])c3ccc(-c4ccccc4)cc3)ccc2[nH]1 (centres unmarked) [V, 6-[4-(4-Biphenylylsulfinyl)-butoxy]-carbostyril]
pIC50 [1]: 6.92

O=c1ccc2cc(OCCCC[S+]([O-])c3ccc4ccccc4n3)ccc2[nH]1 (centres unmarked) [W, 6-[4-(2-Quinolylsulfinyl)-butoxy]-carbostyril]
pIC50 [1]: 6.85

O=c1ccc2cc(OCCCC[S+]([O-])C3CCCCC3)ccc2[nH]1 (centres unmarked) [X, 6-(4-Cyclohexylsulfinyl-butoxy)-carbostyril]
pIC50 [1]: 6.15

O=c1ccc2c(Br)c(OCCCC[S+]([O-])c3ccccc3)ccc2[nH]1 (centres unmarked) [Y, 5-Bromo-6-(4-phenylsulfinyl-butoxy)-carbostyril]
pIC50 [1]: 7.00

CN(C(=O)C[S+]([O-])CCOc1ccc2[nH]c(=O)ccc2c1)C1CCCCC1 (centres unmarked) [Z, 6-[2-(N-Methyl-N-cyclohexyl-carbamidomethyl-sulfinyl)-ethoxy]-carbostyril]
pIC50 [1]: 6.30

Source: US4329347A, “Cardiotonic and antithrombotic sulfur-containing derivatives of carbostyril” (Boehringer Ingelheim GmbH, priority 1978, dated 1982)
